# Read-outs that look alike come from different tables or passages of the source.
# Tests used:
# [1] = system: production of Abeta1-x peptides in H4 neuroglioma cell line stably expressing human APP; test: H4-APPwt Cell-Based Assay (Assay 2), Abeta1-x production
# Description: H4-APPwt Cell-Based Assay (Assay 2)
# Cellular potency of the compounds of the invention was assessed in an assay monitoring production of Abeta1-x peptides in the H4 neuroglioma cell line (ATCC, Cat. #HTB-148) stably expressing human APP, using an immunoassay such as AlphaLISA (PerkinElmer, Cat.# AL288). Tested compounds were dissolved in DMSO and pre-diluted in the culture medium (DMEM containing 10% FBS and 1% penicillin/streptomycin) to achieve twice the final concentration of the compounds in the assay. Equal volumes of the 2× solutions of the tested compounds and cell suspension were added to a 96-well culture plate, so that each well contained ˜10,000 cells in a final volume of 200 μl. Final concentration of DMSO in the assay was 0.2%. The plates were incubated for 5 hrs at 37° C., 5% CO2 to allow cells to attach to the bottom of the wells in the presence of the tested compounds. Then the media was removed and replaced with fresh media containing tested compounds at the same final concentration. The plates were incubated for 18 hrs at 37° C., 5% CO2. Concentrations of Ab1-x were determined using AlphaLISA immunoassay (PerkinElmer, Cat.# AL288) following manufacturer's protocol. Concentrations of Abeta1-x in the wells containing either DMSO or 10 μM beta-secretase inhibitor (BACE inhibitor IV, EMD Bioscience, Cat. #565788) were used as uninhibited and background controls, correspondingly, for calculating percent inhibition values for each well with the tested compounds.
# [2] = target: hERG (Homo sapiens (Human), UniProt Q12809); test: hERG-Channel Assay (Assay 3), whole-cell patch clamp; type: cell-based; settings: for inhibition at 10 µM: human, HEK293 cells stably transfected with hERG, pH 7.4, HEK293 cells transfected with hERG
# Source text: hERG-Channel Assay (Assay 3)
# HEK (human embryonic kidney) 293 cells were stably transfected with hERG cDNA.
# Cells were superfused with a bath solution containing (mM): NaCl (137), KCl (4.0), MgCl2 (1.0), CaCl2 (1.8), Glucose (10), HEPES (10), pH 7.4 with NaOH. Patch pipettes were made from borosilicate glass tubing using a horizontal puller and filled with pipette solution containing (mM): K-aspartate (130), MgCl2 (5.0), EGTA (5.0), K2ATP (4.0), HEPES (10.0), pH 7.2 with KOH. Resistance of the microelectrodes was in the range between 2 and 5 MΩ.
# Membrane currents were recorded using an EPC-10 patch clamp amplifier and PatchMaster software. hERG-mediated membrane currents were recorded at 35° C., using the whole-cell configuration of the patch-clamp technique. Transfected HEK293 cells were clamped at a holding potential of −60 mV and hERG-mediated inactivating tail currents were elicited using a pulse pattern with fixed amplitudes (activation/inactivation: 40 mV for 2000 ms; recovery: −120 mV for 2 ms; ramp to 40 mV in 2 ms; inactivating tail current: 40 mV for 50 ms) repeated at 15 s intervals. During each inter-pulse interval 4 pulses scaled down by a factor of 0.2 were recorded for a P/n leak subtraction procedure. Rs compensation was employed up to a level that safely allowed recording devoid of ringing.
# The different concentrations of the test compound were applied sequentially on each of the different cells investigated. A steady state level of baseline current was measured for at least 6 sweeps prior to the application of the first test compound concentration.
# The test compound was dissolved in DMSO to yield a master stock solution which was diluted further in DMSO to stock solutions needed for the lower concentrations. Final dilutions in extracellular buffer were prepared freshly from these stocks by a 1:1000 dilution step each before starting the experiments.
# Peak current amplitudes were measured 3 ms after the ramp to +40 mV. For baseline and each concentration the peak currents of the three last sweeps before application of the next concentration were averaged. Residual currents (I/I0) were calculated for each cell as the fraction of actual average peak current and average baseline peak current. Results are presented as percent (%) inhibition (1−I/I0)*100% at 10 μM.
# [3] = target: truncated human beta-secretase, BACE1 (amino acids 1-454) (Homo sapiens (Human), UniProt P56817); test: BACE1 Assay (Assay 1), fluorescence quench assay; type: biochemical
# Description: The substrate was dissolved at 1 mg/ml in DMSO.
# The assay was performed in the presence of OptiMEM (supernatant collected over 24 h and cleared from cellular debris by centrifugation) containing the ectodomain of BACE1, 25 μl water containing the desired 2-fold concentration of test compound and 2% DMSO, 1 μM substrate peptide, 20 mM NaOAc, pH 4.4, and 0.04% Triton-X100 in a total assay volume of 50 μl in a 384 well plate. In general, 25 μl of compound dilution were given to the plate followed by the addition of 10 μl of BACE1 containing OptiMEM™ diluted 1:10 in water with 0.2% Triton X-100. The reaction was started with the addition of 15 μl substrate in NaOAc buffer. The reaction was incubated at rt (dark) in an Envision® multilabel reader (Perkin Elmer) and the cleavage of the substrate was recorded as kinetic for 60 min at ex: 485 nm, em: 538 nm. Blank wells containing no enzyme were included on each plate.
# The intensity of fluorescence was regressed against time in order to derive velocities of reaction in all 384 wells. These velocities were used for calculating percent control using an uninhibited control containing 1% DMSO as 100% and blank control performed in the absence of enzyme as 0%. IC50 values were calculated by fitting percent control vs. test compound concentration using Assay Explorer.
# [4] = In Vitro Phospholipidosis Assay (Assay 4), Nile red staining; type: cell-based; settings: human, first effect concentration, U937 cells, read-out: Phospholipidosis FEC IC50 μM (assay 4)
# Description: In Vitro Phospholipidosis Assay (Assay 4)
# The phospholipidogenic potential of test compounds was assayed using the human hematopoetic U937 cell line. The test principle was to analyze the phospholipid content by staining the cells with the fluorescent dye Nile red.
# U937 cells were seeded into cell culture plates at 0.5×10^6 cells/mL in RPMI medium containing 10% FBS, 1% DMSO, and 0.005% gentamicin. The cells were then cultivated with or without different concentrations of test compounds for 48 h under standard culture conditions.
# For harvesting the cells were centrifuged at 130×g for 4 min and washed once with PBS. Then 2×0.5 mL cell suspension was prepared for non-fixed cell measurement (0.5 mL for propidium iodide (PI) viability measurement and 0.5 mL for Nile red measurement).
# The remaining cells were fixed with 3.7% formaldehyde for 30 min. After a further centrifugation step cells were resuspended with 1.3 mL Nile red working solution (1 μg/mL) and incubated for 5 min at rt. The cell suspension was then washed twice with 3 mL PBS and centrifuged with 130×g for 4 min. The supernatant was discarded and the cells were resuspended with 0.5 mL PBS and kept for flow cytometry measurement. For Nile red staining of the 0.5 mL non-fixed cell samples, 50 μL of a ready to use Nile red solution (10 μg/mL) were added per sample. Samples were kept on ice for 5 min. Thereafter, they were washed once with 4 mL PBS (4° C., 250×g for 8 min) and finally resuspended in 400 μL PBS and kept for flow cytometry measurement.
# For the viability measurement, 12.5 μL of the ready to use PI solution (10 μg/mL) were added to the 0.5 mL non-fixed cell suspension. After 15 min of incubation on ice, the samples were measured by flow cytometry using a Coulter Epics XL/MCL flow cytometer.
# The viability of the cells of each sample was determined by flow cytometry measurement of the PI content at channel 2 (568-590 nm). Cut-off gates for the fluorescence-dependent differentiation between live and dead cells were defined based on the analysis of cell culture medium control samples.
# Only samples with a cell viability of >=90% relative to control samples were analyzed for phospholipidosis. For that, each Nile red sample (non-fixed and fixed samples) was measured by flow cytometry at channel 1 (504-541 nm) and channel 4 (660-680 nm).
# For each channel, relative Nile red fluorescence intensity of a test sample was calculated compared to control samples and expressed as percentage of control fluorescence intensity. The assessment of the phospholipidogenic potential and the first effect concentration (FEC) of a test compound was done manually based on the fluorescence intensities at both wavelengths for the fixed cells as well as for the non-fixed cells.
# [5] = Homo sapiens, Table 2 comparison examples, read-out: H4-Cell assay (assay 2)
# [6] = Table 2 comparison examples, read-out: BACE IC50 (assay 1)
# [7] = read-out: BACE1 IC50 nM (assay 1)
# [8] = H4 neuroglioma cells expressing human APP, Abeta1-x, read-out: H4-APPwt cell IC50 nM (assay 2)
# Sequence of truncated human beta-secretase, BACE1 (amino acids 1-454) (P56817 22-454): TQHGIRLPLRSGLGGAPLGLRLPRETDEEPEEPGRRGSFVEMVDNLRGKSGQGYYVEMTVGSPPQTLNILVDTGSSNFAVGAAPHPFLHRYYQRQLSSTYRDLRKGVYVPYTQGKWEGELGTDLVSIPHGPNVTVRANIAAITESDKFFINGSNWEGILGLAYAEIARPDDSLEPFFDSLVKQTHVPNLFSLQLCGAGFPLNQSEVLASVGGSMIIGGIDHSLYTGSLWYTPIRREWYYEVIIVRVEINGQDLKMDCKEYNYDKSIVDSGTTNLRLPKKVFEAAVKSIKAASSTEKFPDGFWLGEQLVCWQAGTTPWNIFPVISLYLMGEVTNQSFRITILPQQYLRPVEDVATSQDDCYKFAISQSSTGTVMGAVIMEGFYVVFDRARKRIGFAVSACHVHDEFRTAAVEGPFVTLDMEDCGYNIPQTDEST
# Sequence of hERG (Q12809 whole entry): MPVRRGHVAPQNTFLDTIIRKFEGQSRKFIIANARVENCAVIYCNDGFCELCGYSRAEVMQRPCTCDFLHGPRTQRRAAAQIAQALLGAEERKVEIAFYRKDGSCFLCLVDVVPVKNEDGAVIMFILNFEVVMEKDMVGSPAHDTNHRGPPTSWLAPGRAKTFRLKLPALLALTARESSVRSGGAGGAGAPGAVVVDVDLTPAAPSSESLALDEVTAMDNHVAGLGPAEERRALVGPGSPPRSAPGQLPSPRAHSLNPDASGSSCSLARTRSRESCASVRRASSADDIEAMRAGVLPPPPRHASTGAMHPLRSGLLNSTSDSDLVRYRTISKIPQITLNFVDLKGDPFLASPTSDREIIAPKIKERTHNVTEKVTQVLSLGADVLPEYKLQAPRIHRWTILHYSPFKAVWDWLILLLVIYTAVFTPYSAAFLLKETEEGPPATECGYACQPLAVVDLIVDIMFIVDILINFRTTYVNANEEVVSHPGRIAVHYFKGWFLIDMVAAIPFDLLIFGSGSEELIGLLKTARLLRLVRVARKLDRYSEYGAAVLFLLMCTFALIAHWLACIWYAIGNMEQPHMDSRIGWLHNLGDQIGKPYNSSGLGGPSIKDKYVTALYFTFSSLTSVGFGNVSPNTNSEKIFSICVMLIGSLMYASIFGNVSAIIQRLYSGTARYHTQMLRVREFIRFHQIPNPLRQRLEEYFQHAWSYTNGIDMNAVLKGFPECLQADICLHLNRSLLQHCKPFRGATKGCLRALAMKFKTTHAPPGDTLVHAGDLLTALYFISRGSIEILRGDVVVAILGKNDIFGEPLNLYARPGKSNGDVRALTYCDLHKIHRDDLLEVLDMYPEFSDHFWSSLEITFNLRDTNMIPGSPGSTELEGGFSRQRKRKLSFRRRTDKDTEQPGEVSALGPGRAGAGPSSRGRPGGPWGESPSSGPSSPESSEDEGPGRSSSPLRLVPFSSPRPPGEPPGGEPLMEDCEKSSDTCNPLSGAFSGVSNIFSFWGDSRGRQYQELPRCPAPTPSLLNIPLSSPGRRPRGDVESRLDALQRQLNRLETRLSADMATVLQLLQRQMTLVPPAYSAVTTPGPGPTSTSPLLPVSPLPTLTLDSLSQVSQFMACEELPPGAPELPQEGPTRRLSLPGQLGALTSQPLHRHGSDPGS
SMILES,"IC50 [1, 5] [nM]","hERG (assay 3) ([2]; at 10 μM, Table 2 comparison examples)","IC50 [3, 6] [nM]","IC50 [3, 7] [nM]","IC50 [1, 8] [nM]",inhibition at 10 µM [2] [%],IC50 at 48 h [4] [µM]
"COC1CCC2(CC1)Cc1ccc(C#N)cc1C21N=C(N)N(CC2CCCO2)C1=O (centres unmarked) [Comparison example drawing 11, reference compound]",7,hERG (assay 3) 16% at 10 μM,,,,,
"COCCN1C(=O)C2(N=C1N)c1cc(C#N)ccc1C[C@]21CC[C@@H](OC)CC1 (some centres unmarked) [Comparison example drawing 14, reference compound]",16,,49,,,,
"COC1CCC2(CC1)Cc1ccc(C#N)cc1C21N=C(N)N(C(C)C)C1=O (centres unmarked) [Comparison example drawing 17, reference compound]",16,,107,,,,
"CO[C@H]1CC[C@]2(CC1)Cc1ccc(CCC3CC3)cc1[C@]21N=C(N)N(C[C@@H]2CCO2)C1=O [Comparison example drawing 20, reference compound]",16,,415,,,,
CC[C@@H]1C[C@]2(CC[C@H]1OC)Cc1ccc(C#N)cc1[C@]21N=C(N)N(Cc2ncccn2)C1=O [Example 1],,,,11,0.76,8,200
CC[C@@H]1C[C@]2(CC[C@H]1OC)Cc1ccc(C#N)cc1[C@]21N=C(N)N(CC(C)(C)F)C1=O [Example 3],,,,10,0.57,9,> 200
CC[C@H]1C[C@@]2(CC[C@@H]1OC)Cc1ccc(C#N)cc1[C@]21N=C(N)N(C[C@H]2CCCO2)C1=O [Example 5],,,,,0.9,7,200
COCCN1C(=O)[C@]2(N=C1N)c1cc(C#N)ccc1C[C@@]21CC[C@H](OC)[C@@H](C)C1 [Example 7],,,,2,1.42,8,400
CO[C@H]1[C@H](C)C[C@@]2(Cc3ccc(C#N)cc3[C@]23N=C(N)N(Cc2ncc(F)cn2)C3=O)C[C@@H]1C [Example 10],,,,9,1.12,38,200
CO[C@H]1[C@H](C)C[C@@]2(Cc3ccc(C#N)cc3[C@]23N=C(N)N(CC2(C)COC2)C3=O)C[C@@H]1C [Example 11],,,,4,0.35,6,> 400
CO[C@H]1[C@H](C)C[C@@]2(Cc3ccc(C#N)cc3[C@]23N=C(N)N(CC2CCOCC2)C3=O)C[C@@H]1C [Example 16],,,,11,0.2,6,200
CO[C@H]1[C@H](C)C[C@@]2(Cc3ccc(C#N)cc3[C@]23N=C(N)N(CCC2COC2)C3=O)C[C@@H]1C [Example 19],,,,6,0.4,8,400
CO[C@H]1[C@H](C)C[C@@]2(Cc3ccc(C#N)cc3[C@]23N=C(N)N(Cc2ccncn2)C3=O)C[C@@H]1C [Example 24],,,,5,0.65,23,200
CO[C@H]1[C@H](C)C[C@@]2(Cc3ccc(F)cc3[C@]23N=C(N)N(C[C@@H]2CCOC2)C3=O)C[C@@H]1C [Example 25],,,,,0.99,10,200
CO[C@H]1CC[C@@]2(Cc3ccc(C#N)cc3[C@]23N=C(N)N(CC2COCCO2)C3=O)C[C@@H]1C (some centres unmarked) [Example 27],,,,6,0.95,19,> 200
